The values that follow come from patent US7683077B2, “Piperidine derivative” (Ajinomoto Co., Inc., priority 2003, dated 2010).

A word on the pIC50: it is the negative decadic logarithm of the IC50, by convention in mol/L. Lower therefore signals a high IC50. The term pEC50 denotes the negative decadic logarithm of the EC50, by convention in mol/L.

pEC50, pIC50: −log10 of the molar value.

T1 sequence (P34969 1-445 isoform P34969-2): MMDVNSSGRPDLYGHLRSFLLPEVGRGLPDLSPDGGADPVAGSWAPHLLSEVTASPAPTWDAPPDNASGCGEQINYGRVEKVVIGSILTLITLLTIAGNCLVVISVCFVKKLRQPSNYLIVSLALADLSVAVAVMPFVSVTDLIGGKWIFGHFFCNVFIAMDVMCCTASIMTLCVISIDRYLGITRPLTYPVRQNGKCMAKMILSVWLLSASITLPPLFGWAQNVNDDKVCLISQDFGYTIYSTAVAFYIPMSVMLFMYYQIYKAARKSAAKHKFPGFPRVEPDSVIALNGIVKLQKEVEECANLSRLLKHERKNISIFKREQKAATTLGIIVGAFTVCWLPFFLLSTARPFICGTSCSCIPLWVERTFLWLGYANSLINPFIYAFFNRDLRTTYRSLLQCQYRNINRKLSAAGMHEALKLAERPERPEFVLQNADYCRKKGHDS
T2 sequence (P34969 1-445 isoform P34969-2): as above

One assay addresses T1, Human 5-HT7a receptor (Homo sapiens, UniProt P34969).
T1 construct: host or cells: CHO-K1 (h5HT7-C1 cells)
In words: Receptor binding assay (RBA) using 5HT-7 expression cells.
Details: not given
On the procedure:
Receptor Binding Assay (RBA) Using 5HT-7 Expression Cells
Human 5-HT7a receptor expression CHO—K1 cells (Euroscreen; h5HT7-C1 cells, No. ES-317-C) were cultured in an incubator (CO2: 5%) at 37° C., using Ham's F-12 culture medium containing 400 μg/ml G418, 100 U/ml penicillin, 100 μg/ml streptomycin, and 10% fetal bovine serum. After removal of the culture medium, the cells were washed with phosphate-buffered saline (PBS(−)) free of Ca^2+ and Mg^2+, and then peeled away from a petri dish using HMEE buffer (20 mM HEPES-KOH (pH7.4), 1 mM EDTA, 1 mM EGTA, 2 mM MgCl2). The cells thus collected were homogenized on ice using a Teflon homogenizer, centrifuged at 1,500×g for 5 minutes at 4° C., and the resultant supernatant liquid was then recovered. The supernatant liquid was further centrifuged at 12,000×g for 30 minutes at 4° C. The resultant precipitate was suspended in a HMEE buffer and the resultant suspension was dispensed and flash-frozen in liquid nitrogen. Thus, the frozen product was maintained at −80° C. and melted at room temperature when used in practice. In a 96-well polystyrene round-bottom plate (Falcon, No. 351190), a membrane preparation, the test compound, and 2-[^125I]-(+)-iodo-lysergic acid diethylamide (Perkin Elmer Life Science, No. NEX199) were reacted at room temperature for 3 hours in 50 μL of a binding buffer (50 mM HEPES-NaOH (pH7.4), 1 mM CaCl2, 5 mM MgCl2, 0.5% BSA) in each well. After completion of the reaction, the mixture was trapped by suction into a 96-well GF/B Unifilter plate (Perkin Elmer Life Science, No. 6005177), 50 μL of 0.05% polyethyleneimine being previously added to each well. Each well of the above-mentioned Unifilter plate was washed with about 200 μL of a washing buffer (50 mM HEPES-NaOH (pH7.4), 1 mM CaCl2, 5 mM MgCl2, 0.5 M NaCl, 0.05% Tween-20) three times, and dried overnight. Then, 30 μL of Microscint (Packard, No. NR6013611) was added to each well. The amount of bound 2-[^125I]-(+)-iodo-lysergic acid diethylamide was determined using Top Counter (Packard). The count obtained when 100 μM of crozapine was used as the test compound was fixed at 0%, while the count obtained when no compound was added was fixed at 100%. The binding ratios of 2-[^125I]-(+)-iodo-lysergic acid diethylamide obtained at varied concentrations of the compound were expressed by percentage (%), and the relationship between the concentration of each compound and the binding ratio (%) was approximated to a sigmoid curve. A concentration of the compound corresponding to the binding ratio 50% of 2-[^125I]-(+)-iodo-lysergic acid diethylamide was defined as the value of IC50.
In the case of `CCN1CCC(=C(c2cccc(Cl)c2)c2cc(OC)ccc2OC)CC1` [Example 58], the pIC50 was 7.80.
The same measure, in the same setting: the same measure for `COc1ccccc1C(=C1CCN(C)CC1)c1ccc(Cl)c(Cl)c1` [Example 54]: 7.50.

Staying with this assay, now noted: displacement of 2-[125I]-(+)-iodo-lysergic acid diethylamide, membranes of human 5-HT7a CHO-K1 cells; read-out: pIC50 (converted).
Consider `COc1ccccc1C(=C1CCN(CCNS(=O)(=O)c2cc(Cl)ccc2Cl)CC1)c1cccc(Cl)c1` [Example 49], for which the IC50 is 10 nM.
The same measure, in the same setting: as for `COc1ccccc1C(=C1CCN(CCCNC(=O)OC(C)(C)C)CC1)c1cccc(Cl)c1` [Example 36], the figure is 100 nM.
On to `CCCCN1CCC(=C(c2cccc(Cl)c2)c2cc(OC)ccc2OC)CC1` [Example 60], for which the IC50 was 100 nM.
Still for that read-out and setting: as for `COc1ccc(OC)c(C(=C2CCNCC2)c2cccc(Cl)c2)c1` [Example 4], the figure is 20 nM.
For `CCCN1CCC(=C(c2cccc(Cl)c2)c2ccccc2OC)CC1` [Example 7], the IC50 is 31.6 nM.
The same measure, in the same setting: as for `COc1ccccc1C(=C1CCN(C)CC1)c1ccc(Cl)s1` [Example 55], the figure is 39.8 nM; as for `COc1ccccc1C(=C1CCN(C)CC1)c1cccc(Cl)c1` [Example 1], 39.8 nM.
Same read-out and setting: as for `COc1ccc(C)cc1C(=C1CCN(C)CC1)c1cccc(Cl)c1` [Example 57], the figure is 31.6 nM; as for `COc1ccccc1C(=C1CCN(C)CC1)c1ccc(C)s1` [Example 56], 39.8 nM.

A further assay addresses T2, Human 5HT-7 (Homo sapiens, UniProt P34969).
T2 construct: host or cells: CHO-K1 (h5HT7-C2 cells)
The experiment in a line: Evaluation of 5HT-7 agonist activity using 5HT-7 expression cells (cAMP). It is filed as cell-based. To be noted: cAMP in h5HT7-C2 CHO-K1 cells; 10 μM serotonin = 100%. As for the experimental part: Evaluation of 5HT-7 Agonist Activity Using 5HT-7 Expression Cells
Then, the cAMP concentration was determined using a cAMP EIA kit (RPN225, Amersham) by the method in conformity of the attached protocol (Protocol 2. Acetylation EIA Procedure). […] The cAMP concentrations obtained with varied concentrations of the compound were expressed by percentage (%), and the relationship between the concentration of each compound and the cAMP (%) was approximated to a sigmoid curve. A concentration of the compound corresponding to the cAMP value that is a half the maximum value (Emax) on the approximated sigmoid curve was defined as the value of EC50.
With `COc1ccc(OC)c(C(=C2CCNCC2)c2cccc(Cl)c2)c1` [Example 4], the pEC50 is 7.06.
